Patent US20190351029A1, “MODULATION OF ISCHEMIC CELL BIOENERGETICS” (East Carolina University, priority 2017, published 2019)
Where a name gives a salt, the structure may show the parent alone.

Legend:
hypoxic cell growth = assay: High-throughput hypoxic cell growth assays; assay type: cell-based
From the text: In some embodiments, the presently disclosed subject matter relates to the discovery that genetically or pharmacologically enhancing glycolytic metabolism is protective against hypoxia/ischemia. Particularly, in accordance with some embodiments of the presently disclosed subject matter, it has been uncovered that elevated expression of the enzyme 6-phosphofructo-2-kinase/fructose-2,6-bisphosphatase 3 (PFKFB3), a potent allosteric activator of glycolysis, prevents ischemic injury and improves cell survival, while small molecular inhibition of PFKFB3 severely exacerbates ischemic injury. Thus, in some embodiments, the genetic target is PFKFB3. […] The compounds include, for example, metform in, phenformin, biperiden hydrochloride, clemastine, meclizine, berberine chloride, vinpocetine, pimozide, and mefloquine.
Many Food and Drug Administration (FDA) approved drugs and other chemical compounds have off-target effects on cellular metabolism, including the ability to enhance glycolytic metabolism. Cardiomyoblast (H9c2; obtained from ATCC) cells were treated with a number of compounds (berberine, clofoctol, phenformin, metformin, pentamidine, clemastine, pimoxide, bisacodyl, meclizine, mefloquine, papaverine, flunarizine, biperiden, vinpocetine, and niclosamide) at a final concentration of 1 μM prior to experimental hypoxia for 72 hours. […] Human kidney fibroblast cells were also treated with the compound prior to experimental hypoxia. […] In addition, primary mouse cortical neurons were treated with the compounds prior to experimental ischemia.

[1] = tested on: endothelial (HUVEC) cells; assay: AAV-mediated expression of PFKFB3 in endothelial cells; assay type: cell-based, human; details: HUVEC on Matrigel; PFKFB3 inhibited
From the text: To begin examining the therapeutic potential of PFKFB3 in PAD, an AAV vector was generated to deliver PFKFB3 cloning the PFKFB3 coding sequence into an AAV2 ITR vector with expression driven by the ubiquitous cytomegalovirus promoter (CMV) promoter. AAV-PFKFB3 or control virus (AAV-DJ-GFP) was delivered to muscle (primary mouse myoblast) and endothelial (HUVEC) cells at a multiplicity of infection (MOI) of 10,000.

Structure (SMILES)	cell growth/survival in hypoxia (hypoxic cell growth)	effect on enhanced tube formation of AAV-DJ-PFKFB3 treated endothelial cells [1]
CN(C)C(=N)N=C(N)N [metform in, metformin]	improve cell growth/survival in hypoxia	–
COc1ccc2cc3[n+](cc2c1OC)CCc1cc2c(cc1-3)OCO2 [berberine chloride]	improve cell growth/survival in hypoxia	–
[H]/N=C(/N)N/C(=N/[H])NCCc1ccccc1 [phenformin]	improve cell growth/survival in hypoxia	–
O=C(C=Cc1ccc2ccccc2n1)c1ccncc1 [PFK15, 1-(4-pyridinyl)-3-(2-quinolinyl)-2-propen-1-one]	–	abolished
CN1CCC[C@@H]1CCO[C@](C)(c1ccccc1)c1ccc(Cl)cc1 [clemastine]	improve cell growth/survival in hypoxia	–
OC(CCN1CCCCC1)(c1ccccc1)C1CC2C=CC1C2 (stereo not drawn) [biperiden hydrochloride]	improve cell growth/survival in hypoxia	–
OC(c1cc(C(F)(F)F)nc2c(C(F)(F)F)cccc12)C1CCCCN1 (stereo not drawn) [mefloquine]	improve cell growth/survival in hypoxia	–
Cc1cccc(CN2CCN(C(c3ccccc3)c3ccc(Cl)cc3)CC2)c1 (stereo not drawn) [meclizine]	improve cell growth/survival in hypoxia	–
CCOC(=O)C1=C[C@]2(CC)CCCN3CCc4c(n1c1ccccc41)[C@@H]32 [vinpocetine]	improve cell growth/survival in hypoxia	–
